Measured values taken from paper PMC7473772 (eLife, 2020).
Values joined by “and” are separate entries in the source; they are usually repeats but may differ in a detail not shown here. Identical values can stand only once. Like-named read-outs stand apart in the source and are kept apart here.

What was measured:
TbAQP2 L218M = TbAQP2 L218M (Trypanosoma brucei brucei, UniProt Q6ZXT3, L218M); assay: [3H]-pentamidine transport; type: cell-based; details: AQP2 mutant L218M; n=3
HAPT = details: cited from earlier work
[1] = test system: tbaqp2/tbaqp3 null cells expressing TbAQP2^L258Y; type: cell-based, Trypanosoma brucei brucei
TbAQP3^W102I/R256L/Y250L = TbAQP3^W102I/R256L/Y250L (Trypanosoma brucei brucei, UniProt Q6ZXT2, R256L/W102I/Y250L); assay: [3H]-pentamidine transport; type: cell-based; details: AQP3 W102I/R256L/Y250L; over 30 minutes
[2] = test system: tbaqp2/tbaqp3 null cells expressing TbAQP2 L218W; assay: microbe, parasite or virus in culture; type: cell-based, Trypanosoma brucei brucei
[3] = test system: tbaqp2/tbaqp3 null cells expressing TbAQP2^I110W/L264R; type: cell-based, Trypanosoma brucei brucei
TbAQP2^S131P/S263A = TbAQP2^S131P/S263A (Trypanosoma brucei brucei, UniProt Q6ZXT3, S131P/S263A); assay: [3H]-pentamidine transport; type: cell-based; details: 30 nM [3H]-pentamidine
[4] = test system: tbaqp2/tbaqp3 null cells expressing TbAQP2^I190T; type: cell-based, Trypanosoma brucei brucei
TbAQP3^W102I/R256L = TbAQP3^W102I/R256L (Trypanosoma brucei brucei, UniProt Q6ZXT2, R256L/W102I); assay: [3H]-pentamidine transport; type: cell-based; details: AQP3 W102I/R256L; over 30 minutes
[5] = test system: tbaqp2/tbaqp3 null cells expressing TbAQP2 L118M; assay: microbe, parasite or virus in culture; type: cell-based, Trypanosoma brucei brucei
tbaqp2 null (AQP2-KO) = assay: Drug sensitivity assay (resazurin); type: cell-based; details: Trypanosoma brucei, read-out: EC50 AQP2-KO AVG, AQP2-KO / tbaqp2 null; 48 h drug + 24 h resazurin
TbAQP2 L118M = TbAQP2 L118M (Trypanosoma brucei brucei, UniProt Q6ZXT3, L118M); assay: [3H]-pentamidine transport; type: cell-based; details: AQP2 mutant L118M
TbAQP2 L118W = TbAQP2 L118W (Trypanosoma brucei brucei, UniProt Q6ZXT3, L118W); assay: [3H]-pentamidine transport; type: cell-based; details: AQP2 mutant L118W; n=6
[6] = test system: tbaqp2/tbaqp3 null cells expressing TbAQP2 L84M; assay: microbe, parasite or virus in culture; type: cell-based, Trypanosoma brucei brucei; details: Trypanosoma brucei
TbAQP3 = TbAQP3 (Trypanosoma brucei brucei, UniProt Q6ZXT2); type: cell-based
[7] = biological target: T1, aqp1/aqp2/aqp3 null cells expressing TbAQP2-WT (Trypanosoma brucei brucei, UniProt Q6ZXT3); assay: Inhibition of [3H]-pentamidine uptake (dose response); type: cell-based; details: zero inhibitor point 0.01011
T1 sequence (Q6ZXT3 1-312): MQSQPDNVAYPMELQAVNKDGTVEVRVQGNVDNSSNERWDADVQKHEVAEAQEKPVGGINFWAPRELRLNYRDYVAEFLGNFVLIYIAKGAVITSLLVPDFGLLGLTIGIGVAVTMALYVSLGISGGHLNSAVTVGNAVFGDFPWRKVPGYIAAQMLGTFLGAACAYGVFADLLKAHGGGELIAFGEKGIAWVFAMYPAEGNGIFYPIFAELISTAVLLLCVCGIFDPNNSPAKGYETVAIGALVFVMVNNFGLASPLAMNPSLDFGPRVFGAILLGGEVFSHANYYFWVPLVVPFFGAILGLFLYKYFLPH

[8] = test system: tbaqp2/tbaqp3 null cells expressing TbAQP2 L84W; assay: microbe, parasite or virus in culture; type: cell-based, Trypanosoma brucei brucei
TbAQP2 L84W = TbAQP2 L84W (Trypanosoma brucei brucei, UniProt Q6ZXT3, L84W); assay: [3H]-pentamidine transport; type: cell-based; details: AQP2 mutant L84W; n=5
[9] = test system: tbaqp2/tbaqp3 null cells expressing TbAQP2^I190T/W192G; type: cell-based, Trypanosoma brucei brucei
[10] = test system: tbaqp2/tbaqp3 null cells expressing TbAQP2^W192G; type: cell-based, Trypanosoma brucei brucei
TbAQP2/HAPT1 = TbAQP2/HAPT1 (Trypanosoma brucei brucei, UniProt Q6ZXT3); details: cited from earlier work
[11] = test system: tbaqp2/tbaqp3 null cells expressing TbAQP3^W102I/R256L; type: cell-based, Trypanosoma brucei brucei
TbAQP2^I190T/W192G = TbAQP2^I190T/W192G (Trypanosoma brucei brucei, UniProt Q6ZXT3, I190T/W192G); type: cell-based; details: Fig. 3A, exp AQP016-AQP023; AQP2 mutant I190T/W192G
[12] = Trypanosoma brucei, read-out: Alamar blue EC50, MEAN
[13] = Trypanosoma brucei, read-out: Alamar blue EC50, single repeats
[14] = Trypanosoma brucei, read-out: EC50 AVG
[15] = read-out: Alamar blue EC50, single repeats

Chain of TbAQP3 (Q6ZXT2 whole entry): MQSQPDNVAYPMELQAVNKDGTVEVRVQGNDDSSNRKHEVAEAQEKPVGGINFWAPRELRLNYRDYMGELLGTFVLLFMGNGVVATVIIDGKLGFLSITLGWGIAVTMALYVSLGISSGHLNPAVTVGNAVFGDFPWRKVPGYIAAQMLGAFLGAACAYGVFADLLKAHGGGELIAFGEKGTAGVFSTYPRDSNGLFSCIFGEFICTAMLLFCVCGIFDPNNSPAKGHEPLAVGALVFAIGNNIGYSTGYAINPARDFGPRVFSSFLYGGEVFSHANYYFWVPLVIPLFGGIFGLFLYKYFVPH
Chain of TbAQP2 L118M (Q6ZXT3 whole entry L118M): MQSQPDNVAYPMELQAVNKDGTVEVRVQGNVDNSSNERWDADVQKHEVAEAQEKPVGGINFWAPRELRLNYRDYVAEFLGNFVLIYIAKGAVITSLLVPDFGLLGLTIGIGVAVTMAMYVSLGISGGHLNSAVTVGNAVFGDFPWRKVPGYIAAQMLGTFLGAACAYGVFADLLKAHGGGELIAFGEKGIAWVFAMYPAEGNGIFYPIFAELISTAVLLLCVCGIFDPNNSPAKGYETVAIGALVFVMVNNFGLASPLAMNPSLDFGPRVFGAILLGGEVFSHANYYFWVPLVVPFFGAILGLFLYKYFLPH
Chain of TbAQP2^I190T/W192G (Q6ZXT3 whole entry I190T/W192G): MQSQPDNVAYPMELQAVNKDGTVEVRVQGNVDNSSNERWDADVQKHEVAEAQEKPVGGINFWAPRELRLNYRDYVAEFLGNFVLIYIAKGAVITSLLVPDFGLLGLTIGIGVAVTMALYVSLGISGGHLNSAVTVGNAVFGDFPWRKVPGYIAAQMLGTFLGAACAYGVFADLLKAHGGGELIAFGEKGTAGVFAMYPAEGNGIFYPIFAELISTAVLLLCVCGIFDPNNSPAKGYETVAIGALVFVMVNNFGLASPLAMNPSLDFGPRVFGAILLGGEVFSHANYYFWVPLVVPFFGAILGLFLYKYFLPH
Chain of TbAQP3^W102I/R256L (Q6ZXT2 whole entry W102I/R256L): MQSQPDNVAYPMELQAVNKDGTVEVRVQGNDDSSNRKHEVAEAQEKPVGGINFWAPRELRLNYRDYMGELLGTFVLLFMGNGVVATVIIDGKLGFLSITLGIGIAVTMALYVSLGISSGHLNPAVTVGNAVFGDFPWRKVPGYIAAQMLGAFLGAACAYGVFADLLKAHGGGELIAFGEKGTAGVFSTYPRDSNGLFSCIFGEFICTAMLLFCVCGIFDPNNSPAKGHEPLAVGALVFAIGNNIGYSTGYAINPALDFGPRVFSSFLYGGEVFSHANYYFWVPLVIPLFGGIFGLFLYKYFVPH
Chain of TbAQP2 L84W (Q6ZXT3 whole entry L84W): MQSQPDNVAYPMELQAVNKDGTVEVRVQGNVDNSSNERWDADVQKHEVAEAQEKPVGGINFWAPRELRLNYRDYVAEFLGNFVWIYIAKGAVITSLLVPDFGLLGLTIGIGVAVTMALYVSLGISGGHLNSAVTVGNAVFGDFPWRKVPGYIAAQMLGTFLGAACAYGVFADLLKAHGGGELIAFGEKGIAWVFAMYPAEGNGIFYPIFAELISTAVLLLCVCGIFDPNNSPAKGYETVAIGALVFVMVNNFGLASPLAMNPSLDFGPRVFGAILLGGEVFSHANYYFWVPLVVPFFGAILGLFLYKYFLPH
Chain of TbAQP2 L218M (Q6ZXT3 whole entry L218M): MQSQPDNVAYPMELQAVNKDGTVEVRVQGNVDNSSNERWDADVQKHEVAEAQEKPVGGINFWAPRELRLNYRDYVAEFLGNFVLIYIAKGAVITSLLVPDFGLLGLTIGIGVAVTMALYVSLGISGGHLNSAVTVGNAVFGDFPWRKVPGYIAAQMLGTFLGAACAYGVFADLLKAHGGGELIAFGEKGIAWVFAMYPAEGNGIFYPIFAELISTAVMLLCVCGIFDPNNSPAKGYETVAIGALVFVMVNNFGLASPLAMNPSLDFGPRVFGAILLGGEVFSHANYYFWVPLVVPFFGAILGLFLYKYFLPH
Chain of TbAQP2 L118W (Q6ZXT3 whole entry L118W): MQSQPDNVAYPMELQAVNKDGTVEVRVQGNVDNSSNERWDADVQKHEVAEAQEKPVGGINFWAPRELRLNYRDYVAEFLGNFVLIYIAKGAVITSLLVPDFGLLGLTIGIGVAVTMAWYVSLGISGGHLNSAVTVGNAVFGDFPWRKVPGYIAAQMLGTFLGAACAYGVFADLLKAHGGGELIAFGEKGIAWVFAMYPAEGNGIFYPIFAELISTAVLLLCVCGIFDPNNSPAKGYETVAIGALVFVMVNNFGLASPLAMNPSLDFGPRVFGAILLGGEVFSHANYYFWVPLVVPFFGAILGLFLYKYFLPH
Chain of TbAQP2^S131P/S263A (Q6ZXT3 whole entry S131P/S263A): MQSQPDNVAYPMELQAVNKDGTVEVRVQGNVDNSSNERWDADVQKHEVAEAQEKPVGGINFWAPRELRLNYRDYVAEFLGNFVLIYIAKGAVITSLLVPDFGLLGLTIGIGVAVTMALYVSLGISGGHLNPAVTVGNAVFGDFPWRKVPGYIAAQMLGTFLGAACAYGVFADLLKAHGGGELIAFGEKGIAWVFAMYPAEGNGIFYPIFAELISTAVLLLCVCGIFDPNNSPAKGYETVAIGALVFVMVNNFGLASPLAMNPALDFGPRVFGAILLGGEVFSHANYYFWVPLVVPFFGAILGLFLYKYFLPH
Chain of TbAQP3^W102I/R256L/Y250L (Q6ZXT2 whole entry W102I/Y250L/R256L): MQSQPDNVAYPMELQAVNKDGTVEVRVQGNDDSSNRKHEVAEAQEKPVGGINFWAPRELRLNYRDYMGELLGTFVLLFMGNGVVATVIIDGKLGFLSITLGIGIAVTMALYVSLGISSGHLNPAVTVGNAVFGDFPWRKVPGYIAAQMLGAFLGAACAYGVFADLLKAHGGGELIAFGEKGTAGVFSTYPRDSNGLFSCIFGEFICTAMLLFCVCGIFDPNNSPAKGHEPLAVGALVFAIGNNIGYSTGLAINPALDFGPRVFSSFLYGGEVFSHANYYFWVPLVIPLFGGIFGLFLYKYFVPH

SMILES: N=C(N)c1ccc(OCCCCCOc2ccc(C(=N)N)cc2)cc1 [Pentamidine]
- Pentamidine transport rate AVG (TbAQP2 L218M): 0.004612 pmol/10E7 cells/s
- Vmax (HAPT): 0.0044 ± 0.0004 pmol(10^7 cells)^−1 s^−1
- Vmax for HAPT-mediated pentamidine uptake (HAPT): 9.5 × 10^5 molecules/cell/h and 8.5 × 10^6 molecules/cell/h
- EC50, percent of AQP2/3 null EC50 [1]: 0.50%
- Pentamidine transport rate (TbAQP3^W102I/R256L/Y250L): 2.46E-04 pmol/10E7 cells/s
- EC50 [2, 12]: 4.39 nM
- EC50 [2, 13]: 4 nM
- EC50 [2, 14]: 4.4 nM
- EC50 [2, 15]: 3.9 nM and 5.3 nM
- EC50 as percent of AQP2/3 null EC50, MEAN [3]: 101.41%
- Pentamidine transport rate (TbAQP2^S131P/S263A): 0.00111 pmol/10E7 cells/s
- EC50 as percent of AQP2/3 null EC50, MEAN [4]: 6.89%
- Pentamidine transport rate (TbAQP3^W102I/R256L): 1.51E-04 pmol/10E7 cells/s
- EC50 [5, 12]: 34.2 nM
- EC50 [5, 13]: 39 nM
- EC50 [5, 14]: 34.2 nM
- EC50 [5, 15]: 39.5 nM and 24.2 nM
- EC50 (tbaqp2 null (AQP2-KO)): 130 nM
- Pentamidine transport rate AVG (TbAQP2 L118M; n=3): 0.0006601 pmol/10E7 cells/s
- Pentamidine transport rate (TbAQP2 L118M; single experiments): 0.000589 pmol/10E7 cells/s and 0.000736 pmol/10E7 cells/s and 0.0006552 pmol/10E7 cells/s
- Pentamidine transport rate AVG (TbAQP2 L118W): 0.0006283 pmol/10E7 cells/s
- EC50 ([6]; read-out: Alamar blue EC50, MEAN): 0.43 nM
- EC50 ([6]; read-out: EC50 AVG): 0.43 nM
- Pentamidine transport rate (TbAQP3): 1.04E-04 pmol/10E7 cells/s
- Pentamidine transport rate, percent of TbAQP2WT control (TbAQP3): 0.49%
- Transport rate AVG (TbAQP3): 0.48
- pentamidine uptake ([7]; log[inhibitor] -3.60): -1.5e-19
- pentamidine uptake ([7]; log[inhibitor] -6.48): 0.001052
- pentamidine uptake ([7]; log[inhibitor] -7.00): 0.005102
- pentamidine uptake ([7]; log[inhibitor] -7.52): 0.006394
- pentamidine uptake ([7]; log[inhibitor] -8.00): 0.007854
- pentamidine uptake ([7]; log[inhibitor] -8.48): 0.008733
- pentamidine uptake ([7]; log[inhibitor] -9.00): 0.008545
- pentamidine uptake ([7]; log[inhibitor] -9.48): 0.009352
- EC50 [8, 12]: 32 nM
- EC50 [8, 13]: 34.5 nM
- EC50 [8, 14]: 32 nM
- EC50 [8, 15]: 33.6 nM and 27.8 nM
- Pentamidine transport rate AVG (TbAQP2 L84W): 0.0006628 pmol/10E7 cells/s
- EC50 as percent of AQP2/3 null EC50, MEAN [9]: 99.52%
- EC50 as percent of AQP2/3 null EC50, single repeats [9]: 131.67% and 89.434% and 77.4635%
- EC50 as percent of AQP2/3 null EC50, MEAN [10]: 8.08%
- Gibbs free energy of pentamidine/AQP2 interaction (TbAQP2/HAPT1): -10 kcal/mol
- EC50 as percent of AQP2/3 null EC50, MEAN [11]: 83.83%
- Pentamidine transport rate as percent of +AQP2-WT, AVG (TbAQP2^I190T/W192G): 2.70%
- Pentamidine transport rate, AVG (TbAQP2^I190T/W192G): 0.0005659 pmol/10E7 cells/s
